Laboratory results taken from paper PMC4979471 (Cell Death Discovery, 2015).
Like-named read-outs stand apart in the source and are kept apart here.

Key:
Assay in all cases: Kinase selectivity, P33-radiolabeled assay
Format in all cases: biochemical
Conditions in all cases: 10 μM ATP
CAMK1b = target: T1, CAMK1b (Homo sapiens, UniProt Q6P2M8)
T1 construct: purchased Reaction Biology Corp
Method in brief: (§1)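 Duplicate single-concentration testing used 10 μM compound. The ATP concentration was also 10 μM.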

TIE2/TEK = target: T2, TIE2/TEK (Homo sapiens, UniProt Q02763)
T2 construct: purchased Reaction Biology Corp
T2 sequence (Q02763 23-1124): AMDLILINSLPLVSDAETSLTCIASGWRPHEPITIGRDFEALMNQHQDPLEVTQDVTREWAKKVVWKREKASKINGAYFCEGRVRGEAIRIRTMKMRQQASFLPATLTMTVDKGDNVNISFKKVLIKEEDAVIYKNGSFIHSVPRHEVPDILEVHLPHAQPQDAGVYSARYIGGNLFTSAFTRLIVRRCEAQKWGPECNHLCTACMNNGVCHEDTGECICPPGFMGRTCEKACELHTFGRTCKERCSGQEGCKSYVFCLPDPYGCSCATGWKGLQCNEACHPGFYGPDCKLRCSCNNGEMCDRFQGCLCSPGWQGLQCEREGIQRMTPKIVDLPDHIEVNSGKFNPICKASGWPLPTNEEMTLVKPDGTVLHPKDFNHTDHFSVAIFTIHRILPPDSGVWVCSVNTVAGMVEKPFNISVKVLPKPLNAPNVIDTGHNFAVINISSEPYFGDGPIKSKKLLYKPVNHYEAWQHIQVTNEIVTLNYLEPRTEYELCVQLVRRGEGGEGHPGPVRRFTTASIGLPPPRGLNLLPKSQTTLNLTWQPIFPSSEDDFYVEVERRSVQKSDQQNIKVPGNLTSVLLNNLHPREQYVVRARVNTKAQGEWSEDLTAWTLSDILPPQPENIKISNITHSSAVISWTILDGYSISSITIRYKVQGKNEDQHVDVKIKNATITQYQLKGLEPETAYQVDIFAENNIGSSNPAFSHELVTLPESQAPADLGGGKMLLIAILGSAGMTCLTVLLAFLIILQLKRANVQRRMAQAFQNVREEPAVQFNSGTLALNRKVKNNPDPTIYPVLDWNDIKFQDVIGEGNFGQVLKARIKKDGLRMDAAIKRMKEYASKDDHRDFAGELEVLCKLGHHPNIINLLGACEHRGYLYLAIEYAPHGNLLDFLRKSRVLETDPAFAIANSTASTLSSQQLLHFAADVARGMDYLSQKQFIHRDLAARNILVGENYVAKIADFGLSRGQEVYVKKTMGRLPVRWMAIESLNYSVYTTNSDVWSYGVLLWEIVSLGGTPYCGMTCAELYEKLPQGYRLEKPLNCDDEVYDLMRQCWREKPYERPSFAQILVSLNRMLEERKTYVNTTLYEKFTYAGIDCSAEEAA
Method in brief: as §1

EPHA7 = target: T3, EPHA7 (Homo sapiens, UniProt Q15375)
T3 construct: purchased Reaction Biology Corp
T3 sequence (Q15375 28-998): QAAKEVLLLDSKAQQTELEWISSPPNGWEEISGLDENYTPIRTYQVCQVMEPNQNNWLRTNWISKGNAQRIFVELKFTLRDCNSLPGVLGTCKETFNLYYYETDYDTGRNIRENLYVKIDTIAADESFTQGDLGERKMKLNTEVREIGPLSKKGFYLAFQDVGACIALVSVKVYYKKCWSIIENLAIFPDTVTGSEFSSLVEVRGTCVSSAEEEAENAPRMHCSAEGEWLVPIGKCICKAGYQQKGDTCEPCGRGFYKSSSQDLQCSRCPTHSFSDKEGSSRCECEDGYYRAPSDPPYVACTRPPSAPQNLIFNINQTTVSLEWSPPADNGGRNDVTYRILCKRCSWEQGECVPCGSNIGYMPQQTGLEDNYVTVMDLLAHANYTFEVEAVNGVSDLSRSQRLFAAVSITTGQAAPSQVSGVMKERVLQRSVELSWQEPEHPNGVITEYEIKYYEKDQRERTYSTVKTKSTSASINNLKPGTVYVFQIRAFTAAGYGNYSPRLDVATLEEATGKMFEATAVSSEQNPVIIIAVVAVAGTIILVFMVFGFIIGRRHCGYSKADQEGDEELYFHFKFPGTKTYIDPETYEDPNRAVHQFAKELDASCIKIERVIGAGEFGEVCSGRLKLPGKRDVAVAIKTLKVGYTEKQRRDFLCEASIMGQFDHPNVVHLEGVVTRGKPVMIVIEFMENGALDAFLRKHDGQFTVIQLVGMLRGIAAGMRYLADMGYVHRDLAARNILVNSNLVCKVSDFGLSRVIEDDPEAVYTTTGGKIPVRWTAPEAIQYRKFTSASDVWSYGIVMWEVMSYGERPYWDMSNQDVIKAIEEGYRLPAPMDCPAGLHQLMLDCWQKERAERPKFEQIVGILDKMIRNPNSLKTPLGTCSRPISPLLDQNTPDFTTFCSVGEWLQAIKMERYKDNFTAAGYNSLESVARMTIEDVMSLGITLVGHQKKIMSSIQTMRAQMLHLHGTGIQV
Method in brief: as §1

PYK2 = target: T4, PYK2 (Homo sapiens, UniProt Q14289)
T4 construct: purchased Reaction Biology Corp
Method in brief: as §1

PKCa = target: T5, PKCa (Homo sapiens, UniProt P17252)
T5 construct: purchased Reaction Biology Corp
Method in brief: as §1

PLK4/SAK = target: T6, PLK4/SAK (Homo sapiens, UniProt O00444)
T6 construct: purchased Reaction Biology Corp
T6 sequence (O00444 1-970): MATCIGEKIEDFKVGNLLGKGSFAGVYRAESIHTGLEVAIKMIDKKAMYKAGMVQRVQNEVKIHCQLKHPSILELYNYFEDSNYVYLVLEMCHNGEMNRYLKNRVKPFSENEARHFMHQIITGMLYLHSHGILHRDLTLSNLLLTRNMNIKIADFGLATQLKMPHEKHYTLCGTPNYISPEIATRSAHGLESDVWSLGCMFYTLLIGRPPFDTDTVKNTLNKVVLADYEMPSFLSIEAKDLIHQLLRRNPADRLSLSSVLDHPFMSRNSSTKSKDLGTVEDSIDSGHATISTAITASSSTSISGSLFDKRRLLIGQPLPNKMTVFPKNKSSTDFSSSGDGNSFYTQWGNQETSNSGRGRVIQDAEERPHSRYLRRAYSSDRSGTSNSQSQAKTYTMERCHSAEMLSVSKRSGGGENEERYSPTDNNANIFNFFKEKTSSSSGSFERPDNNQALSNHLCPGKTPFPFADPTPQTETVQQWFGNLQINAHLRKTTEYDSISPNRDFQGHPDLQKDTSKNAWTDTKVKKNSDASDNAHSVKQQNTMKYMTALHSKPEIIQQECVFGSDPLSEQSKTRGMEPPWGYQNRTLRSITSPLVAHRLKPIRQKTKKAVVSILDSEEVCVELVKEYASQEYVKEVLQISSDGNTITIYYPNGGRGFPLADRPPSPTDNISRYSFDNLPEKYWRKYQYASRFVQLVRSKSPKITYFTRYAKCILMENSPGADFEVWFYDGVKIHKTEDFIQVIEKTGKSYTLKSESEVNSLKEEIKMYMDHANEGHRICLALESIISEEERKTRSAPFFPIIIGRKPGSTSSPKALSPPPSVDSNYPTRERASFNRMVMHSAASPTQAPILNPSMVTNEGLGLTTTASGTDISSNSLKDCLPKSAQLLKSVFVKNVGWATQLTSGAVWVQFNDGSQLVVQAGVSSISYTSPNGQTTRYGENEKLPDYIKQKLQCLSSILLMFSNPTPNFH
Method in brief: as §1

JAK3 = target: T7, JAK3 (Homo sapiens, UniProt P52333)
T7 construct: purchased Reaction Biology Corp
T7 sequence (P52333 1-1124): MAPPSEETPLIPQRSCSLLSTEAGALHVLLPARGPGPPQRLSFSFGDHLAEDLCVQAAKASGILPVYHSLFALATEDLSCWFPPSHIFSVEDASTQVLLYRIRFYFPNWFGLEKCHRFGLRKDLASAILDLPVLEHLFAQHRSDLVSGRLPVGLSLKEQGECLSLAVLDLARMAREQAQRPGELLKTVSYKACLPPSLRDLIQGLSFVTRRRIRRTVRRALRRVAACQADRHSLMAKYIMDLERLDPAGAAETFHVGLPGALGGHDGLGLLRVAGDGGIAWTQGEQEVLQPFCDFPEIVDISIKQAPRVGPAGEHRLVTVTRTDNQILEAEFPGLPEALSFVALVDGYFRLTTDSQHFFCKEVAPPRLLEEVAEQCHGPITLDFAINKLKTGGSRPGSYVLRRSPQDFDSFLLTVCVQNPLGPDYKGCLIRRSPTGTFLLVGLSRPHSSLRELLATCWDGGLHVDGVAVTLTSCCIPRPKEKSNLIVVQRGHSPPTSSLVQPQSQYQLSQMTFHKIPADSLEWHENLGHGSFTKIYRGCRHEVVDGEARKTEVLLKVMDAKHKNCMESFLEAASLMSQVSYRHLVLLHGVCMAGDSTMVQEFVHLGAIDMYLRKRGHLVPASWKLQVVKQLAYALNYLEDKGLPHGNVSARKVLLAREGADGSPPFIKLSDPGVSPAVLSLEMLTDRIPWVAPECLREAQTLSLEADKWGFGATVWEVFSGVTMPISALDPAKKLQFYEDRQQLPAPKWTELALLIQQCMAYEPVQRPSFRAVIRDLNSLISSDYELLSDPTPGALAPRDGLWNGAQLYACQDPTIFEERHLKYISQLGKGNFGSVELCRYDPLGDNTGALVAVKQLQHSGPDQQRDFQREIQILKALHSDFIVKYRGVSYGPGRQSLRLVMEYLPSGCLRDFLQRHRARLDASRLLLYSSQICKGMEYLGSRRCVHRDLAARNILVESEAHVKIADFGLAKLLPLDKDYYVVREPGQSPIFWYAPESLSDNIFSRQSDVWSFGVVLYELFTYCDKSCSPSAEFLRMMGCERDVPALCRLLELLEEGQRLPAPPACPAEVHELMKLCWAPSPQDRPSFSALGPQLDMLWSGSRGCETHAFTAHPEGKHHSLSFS
Method in brief: as §1

TGFBR2 = target: T8, TGFBR2 (Homo sapiens, UniProt P37173)
T8 construct: purchased Reaction Biology Corp
T8 sequence (P37173 23-567): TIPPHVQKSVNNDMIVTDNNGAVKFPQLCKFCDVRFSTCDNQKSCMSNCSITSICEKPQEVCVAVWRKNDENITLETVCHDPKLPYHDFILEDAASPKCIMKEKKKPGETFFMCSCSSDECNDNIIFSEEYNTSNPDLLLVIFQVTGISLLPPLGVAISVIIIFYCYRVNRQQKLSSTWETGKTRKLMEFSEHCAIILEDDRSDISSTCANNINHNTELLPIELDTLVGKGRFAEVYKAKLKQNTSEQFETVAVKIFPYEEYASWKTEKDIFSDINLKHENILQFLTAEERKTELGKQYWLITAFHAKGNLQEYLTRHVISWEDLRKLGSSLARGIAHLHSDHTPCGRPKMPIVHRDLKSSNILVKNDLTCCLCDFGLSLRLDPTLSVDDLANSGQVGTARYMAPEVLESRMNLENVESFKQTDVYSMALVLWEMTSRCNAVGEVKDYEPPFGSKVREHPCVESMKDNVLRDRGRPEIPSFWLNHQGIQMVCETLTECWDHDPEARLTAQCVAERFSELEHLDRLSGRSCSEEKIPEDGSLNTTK
Method in brief: as §1

PKN2/PRK2 = target: T9, PKN2/PRK2 (Homo sapiens, UniProt Q16513)
T9 construct: purchased Reaction Biology Corp
T9 sequence (Q16513 whole entry): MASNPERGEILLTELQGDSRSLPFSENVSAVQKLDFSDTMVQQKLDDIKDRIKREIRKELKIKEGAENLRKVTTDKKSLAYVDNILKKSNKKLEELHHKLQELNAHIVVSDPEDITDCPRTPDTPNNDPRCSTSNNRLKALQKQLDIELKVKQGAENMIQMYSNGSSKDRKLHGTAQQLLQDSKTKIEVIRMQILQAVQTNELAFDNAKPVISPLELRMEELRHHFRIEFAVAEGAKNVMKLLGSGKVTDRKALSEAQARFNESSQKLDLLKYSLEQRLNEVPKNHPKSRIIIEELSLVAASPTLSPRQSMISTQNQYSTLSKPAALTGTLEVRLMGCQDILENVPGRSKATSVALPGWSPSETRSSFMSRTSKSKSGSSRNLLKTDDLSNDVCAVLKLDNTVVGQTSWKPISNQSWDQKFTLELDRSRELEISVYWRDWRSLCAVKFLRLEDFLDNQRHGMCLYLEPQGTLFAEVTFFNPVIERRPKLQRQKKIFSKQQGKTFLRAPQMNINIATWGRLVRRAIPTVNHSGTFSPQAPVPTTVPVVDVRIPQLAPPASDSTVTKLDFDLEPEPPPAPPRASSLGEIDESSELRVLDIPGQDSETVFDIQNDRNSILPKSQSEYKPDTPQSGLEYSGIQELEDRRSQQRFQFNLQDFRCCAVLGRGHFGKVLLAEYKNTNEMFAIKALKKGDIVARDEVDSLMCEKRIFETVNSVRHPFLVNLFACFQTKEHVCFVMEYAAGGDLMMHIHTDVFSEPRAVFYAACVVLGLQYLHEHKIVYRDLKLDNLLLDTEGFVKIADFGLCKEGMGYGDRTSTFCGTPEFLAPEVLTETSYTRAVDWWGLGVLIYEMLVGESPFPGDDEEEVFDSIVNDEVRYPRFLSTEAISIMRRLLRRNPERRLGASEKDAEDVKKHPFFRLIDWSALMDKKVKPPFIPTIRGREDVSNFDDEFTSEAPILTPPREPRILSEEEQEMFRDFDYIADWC
Method in brief: as §1

CK2a2 = target: T10, CK2a2 (Homo sapiens, UniProt P19784)
T10 construct: purchased Reaction Biology Corp
T10 sequence (P19784 whole entry): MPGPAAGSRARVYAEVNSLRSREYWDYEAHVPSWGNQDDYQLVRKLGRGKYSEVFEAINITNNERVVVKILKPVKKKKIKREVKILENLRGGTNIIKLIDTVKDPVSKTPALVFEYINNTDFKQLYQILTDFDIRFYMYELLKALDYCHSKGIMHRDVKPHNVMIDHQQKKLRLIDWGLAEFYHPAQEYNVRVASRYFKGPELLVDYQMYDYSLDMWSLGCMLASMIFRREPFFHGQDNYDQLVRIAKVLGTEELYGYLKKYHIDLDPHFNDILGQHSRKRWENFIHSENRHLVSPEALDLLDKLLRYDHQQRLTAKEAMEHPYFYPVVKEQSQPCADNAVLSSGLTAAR
Method in brief: as §1

[1] = read-out: % Enzyme Activity (relative to DMSO controls) AVG
[2] = read-out: % Enzyme Activity (relative to DMSO controls) Data 1
[3] = read-out: % Enzyme Activity (relative to DMSO controls) Data 2

T1 sequence (Q6P2M8 whole entry): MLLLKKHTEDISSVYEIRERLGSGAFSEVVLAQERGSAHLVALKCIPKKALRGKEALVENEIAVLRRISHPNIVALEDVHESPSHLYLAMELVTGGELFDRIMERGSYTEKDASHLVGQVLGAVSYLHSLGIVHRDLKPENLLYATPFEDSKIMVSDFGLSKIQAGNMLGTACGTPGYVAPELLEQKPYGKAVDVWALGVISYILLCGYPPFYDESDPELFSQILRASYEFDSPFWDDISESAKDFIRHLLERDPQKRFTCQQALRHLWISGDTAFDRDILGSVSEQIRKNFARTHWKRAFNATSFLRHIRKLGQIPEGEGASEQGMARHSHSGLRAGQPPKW

CC(C)(C)C(=O)N1N=CC[C@H]1c1ccccc1 [GSK′963]
remaining activity at 10 µM (CAMK1b; [1]): 96.4%
remaining activity at 10 µM (CAMK1b; [2]): 97.1%
remaining activity at 10 µM (CAMK1b; [3]): 95.8%
remaining activity at 10 µM (TIE2/TEK; [1]): 98.1%
remaining activity at 10 µM (TIE2/TEK; [2]): 95.5%
remaining activity at 10 µM (TIE2/TEK; [3]): 101%
remaining activity at 10 µM (EPHA7; [1]): 111%
remaining activity at 10 µM (EPHA7; [2]): 109%
remaining activity at 10 µM (EPHA7; [3]): 112%
remaining activity at 10 µM (PYK2; [1]): 103%
remaining activity at 10 µM (PYK2; [2]): 103%
remaining activity at 10 µM (PYK2; [3]): 103%
remaining activity at 10 µM (PKCa; [1]): 96.9%
remaining activity at 10 µM (PKCa; [2]): 95.7%
remaining activity at 10 µM (PKCa; [3]): 98%
remaining activity at 10 µM (PLK4/SAK; [1]): 113%
remaining activity at 10 µM (PLK4/SAK; [2]): 114%
remaining activity at 10 µM (PLK4/SAK; [3]): 112%
remaining activity at 10 µM (JAK3; [1]): 106%
remaining activity at 10 µM (JAK3; [2]): 105%
remaining activity at 10 µM (JAK3; [3]): 106%
remaining activity at 10 µM (TGFBR2; [1]): 116%
remaining activity at 10 µM (TGFBR2; [2]): 119%
remaining activity at 10 µM (TGFBR2; [3]): 114%
remaining activity at 10 µM (PKN2/PRK2; [1]): 93.3%
remaining activity at 10 µM (PKN2/PRK2; [2]): 97.5%
remaining activity at 10 µM (PKN2/PRK2; [3]): 89.2%
remaining activity at 10 µM (CK2a2; [1]): 107%
remaining activity at 10 µM (CK2a2; [2]): 108%
remaining activity at 10 µM (CK2a2; [3]): 107%
